Columns and labels:
Assay in all cases: relative viability (nuclei count vs DMSO), 5 days (fraction); higher = more cells survive
[1] = compound: COC1=CC(c2cc3ccccc3[nH]2)=N/C1=C\c1[nH]c(C)cc1C [Obatoclax] + N=C(N)NC(=N)NCCc1ccccc1 [Phenformin] (partner 250 µM)
How it was run: (§1)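 Lung cancer cell lines were seeded in 1536-well plates and dosed by pin tool the next day, with either a single drug or a fixed anchor-drug dose combined with five library-drug doses (not always all listed) spaced in √10 steps. Five days later, one step fixed the cells and stained their nuclei (final 0.05% Triton X-100, 1% formaldehyde, 1 ug/ml Hoechst), and nuclei were counted on 4× images. Relative viability is the nuclei count in treated wells divided by the count in vehicle wells, and each value is the median of duplicate plates.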

[2] = compound: CC(C)C[C@H](NC(=O)[C@H](Cc1ccccc1)NC(=O)c1cnccn1)B(O)O [Bortezomib] + CS(=O)(=O)N1CCN(Cc2cc3nc(-c4cccc5[nH]ncc45)nc(N4CCOCC4)c3s2)CC1 [Pictilisib] (partner 1 µM)
How it was run: as §1

[3] = compound: CC1=CC(=NN1)NC2=CC(=NC(=N2)/C=C/C3=CC=CC=C3)N4CCN(CC4)C + CC(=O)Nc1cccc(-n2c(=O)n(C3CC3)c(=O)c3c(Nc4ccc(I)cc4F)n(C)c(=O)c(C)c32)c1 [Trametinib] (partner 0.02 µM)
How it was run: as §1

[4] = compound: CC1=CC(=NN1)NC2=CC(=NC(=N2)/C=C/C3=CC=CC=C3)N4CCN(CC4)C + CS(=O)(=O)N1CCN(Cc2cc3nc(-c4cccc5[nH]ncc45)nc(N4CCOCC4)c3s2)CC1 [Pictilisib] (partner 1 µM)
How it was run: as §1

| Cell Line | relative viability ([1]; first compound 0.01 µM) | relative viability ([1]; first compound 0.03162 µM) | relative viability ([1]; first compound 0.1 µM) | relative viability ([1]; first compound 0.3162 µM) | relative viability ([1]; first compound 1 µM) | relative viability ([2]; first compound 0.0002 µM) | relative viability ([2]; first compound 0.000632 µM) | relative viability ([2]; first compound 0.002 µM) | relative viability ([2]; first compound 0.006325 µM) | relative viability ([2]; first compound 0.02 µM) | relative viability ([3]; first compound 0.08 µM) | relative viability ([3]; first compound 0.253 µM) | relative viability ([3]; first compound 0.8 µM) | relative viability ([3]; first compound 2.53 µM) | relative viability ([3]; first compound 8 µM) | relative viability ([4]; first compound 0.08 µM) | relative viability ([4]; first compound 0.253 µM) | relative viability ([4]; first compound 0.8 µM) | relative viability ([4]; first compound 2.53 µM) | relative viability ([4]; first compound 8 µM) |
| --- | --- | --- | --- | --- | --- | --- | --- | --- | --- | --- | --- | --- | --- | --- | --- | --- | --- | --- | --- | --- |
| HCC-366 | 0.581 | 0.565 | 0.657 | 0.628 | 0.478 | 0.119 | 0.12 | 0.117 | 0.166 | 0.0325 | 0.334 | 0.372 | 0.253 | 0.0375 | 0.0236 | 0.148 | 0.156 | 0.136 | 0.112 | 0.0428 |
| NCI-H2405 | 0.411 | 0.394 |  | 0.402 | 0.411 | 0.462 |  | 0.464 | 0.152 | 0.148 | 0.63 | 0.397 | 0.685 | 0.519 | 0.147 | 0.473 | 0.32 | 0.452 | 0.179 | 0.133 |
| Calu-6 |  |  |  |  |  | 0.829 | 0.925 | 0.726 | 0.102 | 0.0777 |  |  |  |  |  | 0.876 | 0.807 | 0.648 | 0.131 | 0.103 |
| 201T | 0.434 | 0.457 | 0.43 | 0.399 | 0.463 | 0.677 | 0.707 | 0.698 | 0.684 | 0.541 | 0.713 | 0.741 | 0.674 | 0.664 | 0.649 | 0.668 | 0.683 | 0.67 | 0.643 | 0.607 |
| CAL-12T | 0.552 | 0.612 | 0.538 | 0.155 | 0.102 | 0.155 | 0.368 | 0.427 | 0.211 | 0.151 | 0.362 | 0.292 | 0.259 | 0.102 | 0.104 | 0.335 | 0.426 | 0.48 | 0.187 | 0.147 |
| HCC-44 | 0.268 | 0.185 | 0.0802 | 0.14 | 0.111 | 0.581 | 0.575 | 0.554 | 0.464 | 0.133 | 1.04 | 1.06 | 1.04 | 1.09 | 0.677 | 0.606 | 0.627 | 0.447 | 0.34 | 0.245 |
| NCI-H1944 | 0.215 | 0.202 | 0.149 | 0.201 | 0.18 | 0.34 | 0.314 | 0.349 | 0.319 | 0.276 | 0.433 | 0.429 | 0.37 | 0.318 | 0.239 | 0.317 | 0.34 | 0.348 | 0.281 | 0.223 |
| SK-MES-1 | 0.642 | 0.704 | 0.558 | 0.361 | 0.273 | 0.337 | 0.303 | 0.347 | 0.148 | 0.143 | 0.549 | 0.646 | 0.595 | 0.245 | 0.137 | 0.341 | 0.357 | 0.279 | 0.168 | 0.134 |

From the supplement of paper PMC10307832
